# Read-outs that look alike come from different tables or passages of the source.
# Key:
# [1] = target: T1, beta-catenin/TCF4 engagement (Homo sapiens, UniProt P35222); experiment: Nano-BRET target engagement assay (B-cat-Halo & TCF4-Luc in HEK293 cells); type: cell-based; conditions: read-out: NanoBRET Abs IC50
# T1 construct: expressed in transfected cells; host or cells: HEK293
# T1 sequence (P35222 1-781): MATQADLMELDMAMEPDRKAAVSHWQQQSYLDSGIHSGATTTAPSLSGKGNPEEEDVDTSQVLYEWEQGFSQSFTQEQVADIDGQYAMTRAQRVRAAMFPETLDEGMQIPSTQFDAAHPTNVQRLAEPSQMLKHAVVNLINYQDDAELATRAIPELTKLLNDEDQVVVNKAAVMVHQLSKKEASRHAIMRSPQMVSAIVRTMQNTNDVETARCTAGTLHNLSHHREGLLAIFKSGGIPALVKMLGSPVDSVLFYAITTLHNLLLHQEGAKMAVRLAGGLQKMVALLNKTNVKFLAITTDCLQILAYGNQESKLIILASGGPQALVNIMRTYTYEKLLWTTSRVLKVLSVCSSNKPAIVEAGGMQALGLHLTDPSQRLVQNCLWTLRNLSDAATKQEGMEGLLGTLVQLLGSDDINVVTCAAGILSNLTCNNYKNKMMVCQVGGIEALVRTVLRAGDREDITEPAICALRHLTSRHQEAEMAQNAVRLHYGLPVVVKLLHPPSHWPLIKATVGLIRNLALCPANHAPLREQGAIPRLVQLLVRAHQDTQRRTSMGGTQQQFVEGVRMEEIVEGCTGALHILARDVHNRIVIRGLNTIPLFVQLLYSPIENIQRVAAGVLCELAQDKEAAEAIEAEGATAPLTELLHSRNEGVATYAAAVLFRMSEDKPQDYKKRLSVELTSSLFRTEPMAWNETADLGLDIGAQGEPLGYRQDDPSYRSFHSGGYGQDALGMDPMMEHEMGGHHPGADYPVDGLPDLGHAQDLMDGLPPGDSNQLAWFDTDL
# [2] = target: T2, full-length beta-Catenin (Uniprot ID P35222) (Homo sapiens, UniProt P35222); experiment: Fluorescence polarization IC50 (beta-catenin / 5FAM-TCF4 10-53 competition); type: binding; conditions: fluorescence polarization
# T2 construct: 10 nM full-length beta-Catenin (Uniprot ID P35222)
# T2 sequence (P35222 1-781): T1 sequence (P35222 1-781)
Compound,IC50 ([1]; absolute IC50),IC50 ([2]; read-out: beta-Catenin FP IC50),IC50 [1],"IC50 ([2]; beta-catenin, read-out: FP EC50)"
"CC(=O)N1CCC[C@]12CC=CCCCC1(CCCC=CCCCOC(=O)N3CC[C@@](C(=O)N[C@@H](Cc4ccsc4)C(=O)N[C@@H](Cc4csc5ccccc45)C(=O)N[C@@H](CCC(N)=O)C(N)=O)(C3)NC(=O)[C@H](CC(C)C)NC(=O)[C@H](Cc3ccccc3)NC(=O)[C@H](C)NC(=O)[C@H](C)NC(=O)[C@H](CN(CC(=O)O)C(=O)c3ccccn3)NC(=O)[C@H](CC(=O)O)NC1=O)NC(=O)[C@H](CC(C)(C)C)NC(=O)[C@H](CC(=O)O)NC2=O (stereo partly drawn) [I-2237, Ac-PL3-Asp-Npg-B5-Asp-[Pic]GA-Ala-Ala-Phe-Leu-PyrS2-3Thi-BztA-Gln-NH2]",24.3 µM,0.005 µM,,
"CC(=O)N1CCC[C@]12CC=CCCCC1(CCCC=CCCCCCC[C@@](C)(C(=O)N[C@@H](Cc3cccs3)C(=O)N[C@@H](Cc3csc4ccccc34)C(=O)N[C@@H](CCC(N)=O)C(N)=O)NC(=O)[C@H](CCO)NC(=O)[C@H](Cc3ccccc3)NC(=O)[C@H](C)NC(=O)[C@H](C)NC(=O)[C@H](CC(=O)O)NC(=O)[C@H](CC(=O)O)NC1=O)NC(=O)[C@H](CC(C)(C)C)NC(=O)[C@H](CC(=O)O)NC2=O (stereo partly drawn) [I-1392, Ac-PL3-Asp-Npg-B5-Asp-Asp-Ala-Ala-Phe-Hse-S8-2Thi-BztA-Gln-NH2]",18.3 µM,0.013 µM,,
"CC(=O)N1CCC[C@]12CC=CCCCC1(CCCC=CCCCOC(=O)N3CC[C@@](C(=O)N[C@@H](Cc4ccccc4Cl)C(=O)N[C@@H](Cc4ccc5ccccc5c4)C(=O)N[C@@H](CCC(N)=O)C(N)=O)(C3)NC(=O)[C@H](CC(C)C)NC(=O)[C@H](Cc3ccccc3)NC(=O)[C@H](C)NC(=O)[C@H](C)NC(=O)[C@H](CC(=O)O)NC(=O)[C@H](CC(=O)O)NC1=O)NC(=O)[C@H](CC(C)(C)C)NC(=O)[C@H](CC(=O)O)NC2=O (stereo partly drawn) [I-1237, Ac-PL3-Asp-Npg-B5-Asp-Asp-Ala-Ala-Phe-Leu-PyrS2-2C1F-2NapA-Gln-NH2]",39.9 µM,0.031 µM,,
"CC(=O)N1CCC[C@]12CC=CCCCC1(CCCC=CCCCOC(=O)N3CC[C@@](C(=O)N[C@@H](Cc4ccsc4)C(=O)N[C@@H](Cc4csc5ccccc45)C(=O)N[C@@H](Cc4ccccc4)C(N)=O)(C3)NC(=O)[C@H](CC(C)C)NC(=O)[C@H](Cc3ccccc3)NC(=O)[C@H](C)NC(=O)[C@H](CCC(N)=O)NC(=O)[C@H](Cc3cccc(C(=O)O)c3)NC(=O)[C@H](CC(=O)O)NC1=O)NC(=O)[C@H](CC(C)(C)C)NC(=O)[C@H](CC(=O)O)NC2=O (stereo partly drawn) [I-1912, Ac-PL3-Asp-Npg-B5-Asp-3COOHF-Gln-Ala-Phe-Leu-PyrS2-3Thi-BztA-Phe-NH2]",,0.013 µM,11.5 µM,
"CC(=O)N1CCC[C@]12CC1OC1CCCC1(CCCC=CCCCOC(=O)N3CC[C@@](C(=O)N[C@@H](Cc4ccsc4)C(=O)N[C@@H](Cc4csc5ccccc45)C(=O)N[C@@H](CCC(N)=O)C(N)=O)(C3)NC(=O)[C@H](CC(C)C)NC(=O)[C@H](Cc3ccccc3)NC(=O)[C@H](C)NC(=O)[C@H](C)NC(=O)[C@H](CN(CC(=O)O)CC(F)(F)F)NC(=O)[C@H](CC(=O)O)NC1=O)NC(=O)[C@H](CC(C)(C)C)NC(=O)[C@H](CC(=O)O)NC2=O (stereo partly drawn) [I-2594, Ac-PL3-Asp-Npg-B5-Asp-TfeGA-Ala-Ala-Phe-Leu-PyrS2-3Thi-BztA-Gln-NH2]",,0.47 µM,> 20 µM,
"CC(=O)N[C@]1(C)CC=CCCCC2(CCCC=CCCCOC(=O)N3CC[C@@](C(=O)N[C@@H](Cc4ccccc4C(F)(F)F)C(=O)N[C@@H](Cc4csc5ccccc45)C(=O)N[C@@H](CCC(N)=O)C(N)=O)(C3)NC(=O)[C@H](CC(C)C)NC(=O)[C@H](Cc3ccccc3)NC(=O)[C@H](C)NC(=O)[C@H](C)NC(=O)[C@H](Cc3cccc(C(=O)O)c3)NC(=O)[C@H](CC(=O)O)NC2=O)NC(=O)[C@H](CC(C)(C)C)NC(=O)[C@H](CC(=O)O)NC1=O (stereo partly drawn) [I-2563, Ac-R3-Asp-Npg-B5-Asp-3COOHF-Ala-Ala-Phe-Leu-PyrS2-2F3MeF-BztA-Gln-NH2]",17 µM,0.048 µM,,
"CCCC[C@@H]1NC(=O)[C@H](CC(=O)O)NC(=O)[C@]2(CC=CCCCC3(CCCC=CCCCOC(=O)N4CC[C@@](C(=O)N[C@@H](Cc5ccsc5)C(=O)N[C@@H](Cc5csc6ccccc56)C(=O)N[C@@H](CC(C)C)C(N)=O)(C4)NC(=O)[C@H](CC(C)C)NC(=O)[C@H](Cc4ccccc4)NC(=O)[C@H](C)NC(=O)[C@H](C)NC(=O)[C@H](CC(=O)O)NC(=O)[C@H](CC(=O)O)NC3=O)NC1=O)CCCN2C(C)=O (stereo partly drawn) [I-1411, Ac-PL3-Asp-nLeu-B5-Asp-Asp-Ala-Ala-Phe-Leu-PyrS2-3Thi-BztA-Leu-NH2]",47.1 µM,0.109 µM,,0.109 µM
"CC(=O)N1CCC[C@]12CC=CCCCC1(CCCC=CCCCOC(=O)N3CC[C@@](C(=O)N[C@@H](Cc4ccsc4)C(=O)N[C@@H](Cc4csc5ccccc45)C(=O)N[C@@H](CCC(N)=O)C(N)=O)(C3)NC(=O)[C@H](CC(C)C)NC(=O)[C@H](Cc3ccccc3)NC(=O)[C@H](C)NC(=O)[C@H](C)NC(=O)[C@H](Cc3c[nH]c4ccccc34)NC(=O)[C@H](CC(=O)O)NC1=O)NC(=O)[C@H](CC(C)(C)C)NC(=O)[C@H](CC(=O)O)NC2=O (stereo partly drawn) [I-1439, Ac-PL3-Asp-Npg-B5-Asp-Trp-Ala-Ala-Phe-Leu-PyrS2-3Thi-BztA-Gln-NH2]",> 20 µM,0.349 µM,,
"CC(=O)N1CCC[C@]12CC=CCCCC1(CCCC=CCCCOC(=O)N3CC[C@@](C(=O)N[C@@H](Cc4ccsc4)C(=O)N[C@@H](Cc4csc5ccccc45)C(=O)N[C@@H](CCC(N)=O)C(N)=O)(C3)NC(=O)[C@H](CC(N)=O)NC(=O)[C@H](Cc3cccc(C(=O)O)c3)NC(=O)[C@H](C)NC(=O)[C@H](C)NC(=O)[C@H](CCc3ccc(O)cc3)NC(=O)[C@H](CC(=O)O)NC1=O)NC(=O)[C@H](CC(C)(C)C)NC(=O)[C@H](CC(=O)O)NC2=O (stereo partly drawn) [I-2114, Ac-PL3-Asp-Npg-B5-Asp-hTyr-Ala-Ala-3COOHF-Asn-PyrS2-3Thi-BztA-Gln-NH2]",,0.032 µM,> 20 µM,
"CC(=O)N1CCC[C@]12CC=CCCCC1(CCCC=CCCCOC(=O)N3CC[C@@](C(=O)N[C@@H](Cc4ccsc4)C(=O)N[C@@H](Cc4csc5ccccc45)C(=O)N[C@@H](CCO)C(N)=O)(C3)NC(=O)[C@H](CC(C)C)NC(=O)[C@H](Cc3ccccc3)NC(=O)[C@H](C)NC(=O)[C@H](C)NC(=O)[C@H](CC(=O)O)NC(=O)[C@H](CC(=O)O)NC1=O)NC(=O)[C@H](Cc1ccccc1)NC(=O)[C@H](CC(=O)O)NC2=O (stereo partly drawn) [I-1510, Ac-PL3-Asp-Phe-B5-Asp-Asp-Ala-Ala-Phe-Leu-PyrS2-3Thi-BztA-Hse-NH2]",31.8 µM,0.01 µM,,
"CC(=O)N1CCC[C@]12CC=CCCCC1(CCCC=CCCCOC(=O)N3CC[C@@](C(=O)N[C@@H](Cc4ccsc4)C(=O)N[C@@H](Cc4ccc(F)c(Br)c4)C(=O)N[C@@H](CCC(N)=O)C(N)=O)(C3)NC(=O)[C@H](CC(C)C)NC(=O)[C@H](Cc3ccccc3)NC(=O)[C@H](C)NC(=O)[C@H](C)NC(=O)[C@H](Cc3cccc(C(=O)O)c3)NC(=O)[C@H](CC(=O)O)NC1=O)NC(=O)[C@H](CC(C)(C)C)NC(=O)[C@H](CC(=O)O)NC2=O (stereo partly drawn) [I-2287, Ac-PL3-Asp-Npg-B5-Asp-3COOHF-Ala-Ala-Phe-Leu-PyrS2-3Thi-3Br4FF-Gln-NH2]",7.1 µM,0.007 µM,,
